Experiments:
[1] = tested on: Ba/F3 EGFR Del19/T790M/C797S; experiment: Cell proliferation inhibition experiment (Cell Titer-Glo); format: cell-based; details: Mus musculus, 72 hours, read-out: Ba/F3 EGFR Del19_T790M_C797S IC50
Experimental: (§1) Experimental objective: The objective of this test example is to test the inhibitory activity of compounds on the proliferation of different EGFR C797S drug-resistant mutant cell lines Ba/F3 EGFR Del19/T790M/C797S, Ba/F3 EGFR L858R/T790M/C797S, and Ba/F3 EGFR Del19/C797S. Experimental instruments: Centrifuge (Eppendorf 5810R); Microplate reader (BioTek Synergy H1) Pipette (Eppendorf or Rainin); Carbon dioxide incubator (Thermo 311) Cell counter (Life Countess II) Experimental reagents and consumables: • Ba/F3 EGFR Del19/T790M/C797S cells were purchased from KYinno Biotechnology Co., Ltd.; • Ba/F3 EGFR Del19/C797S cells were purchased from CoBioer Biosciences Co., Ltd.; • Ba/F3 EGFR L858R/T790M/C797S cells were purchased from CoBioer Biosciences Co., Ltd.; • Cell Titer-Glo was purchased from Promega, with a catalogue number of G7573; • RPMI 1640 was purchased from Gibco, with a catalogue number of 22400089; • FBS was purchased from Gibco, with a catalogue number of 10091148; • cell culture plates were purchased from Corning, with a catalogue number of 3610. Experimental methods: The inhibitory activity of the compound on the proliferation of different EGFR C797S drug-resistant mutant cell lines was detected using the Cell Titer-Glo method. The different cell lines were cultured in RPMI 1640 complete culture medium containing 10% FBS under conditions of 37°C and 5% CO2, the cells were collected by centrifugation when growing to a certain density, and adjusted to appropriate cell density after counting, the cells were spread on a white 96-well plate at 90 µL/well, and cultured in a 37°C, 5% CO2 incubator overnight, prepared compound solutions at different concentrations were added at 10 µL/well, corresponding solvent controls were set, and all wells were cultured in a 37°C, 5% CO2 incubator for 72 hours, 50 µL of CellTiter-Glo solution was added to each well, shook and mixed evenly, and incubated in the dark for 10 minutes, and a BioTek Synergy H1 microplate reader was used for reading. Experimental data processing method: The luminescence signal value was used to calculate the inhibition rate. Graphpad Prism software was used to fit the concentration and inhibition rate to a nonlinear regression curve, so as to obtain the IC50 value, as shown in the Table below for details.

[2] = tested on: Ba/F3 EGFR L858R/T790M/C797S; experiment: as above; format: cell-based; details: Mus musculus, 72 hours, read-out: Ba/F3 EGFR L858R_T790M_C797S IC50
Experimental: as §1

Ba/F3 EGFR Del19/C797S = experiment: as above; format: cell-based; details: Mus musculus, 72 hours, read-out: Ba/F3 EGFR Dell9/C797S IC50
Experimental: as §1

[3] = Rat pharmacokinetic evaluation test; format: in vivo; details: male, po, SD rats, plasma, p.o. 5 mg/kg
Experimental: 1. Study objective: SD rats were used as test animals to study the pharmacokinetic behaviour of the compounds of the present invention in rats (plasma) after oral administration at a dose of 5 mg/kg. 2. Experimental scheme: 2.1 Experimental drugs: The example compounds of the present invention, made in house. 2.2 Experimental animals: 3 SD rats/group, male, from Shanghai Jiesijie Experimental Animal Co., Ltd., animal production license number (SCXK (Shanghai) 2013-0006 N0.311620400001794). 2.3 Preparation formulation: • Formulation of drug for oral administration: 20% solutol HS15 in 0.5% MC (methylcellulose) • 20 g of a Solutol HS15 solid and 0.5 g of a MC solid powder were weighed and dissolved in 80 mL of purified water, and the mixture was vortexed, mixed until uniform, and subjected to ultrasound treatment to obtain a clear solution of 20% solutol HS15 in 0.5% MC. The example compound was weighed into a 20 mL glass vial, the solution was added thereto and the mixture was subjected to ultrasound treatment for 10 minutes to obtain a clear solution at a concentration of 0.5 mg/mL. 2.4 Administration: 3 male SD rats were administered p.o. respectively after the rats were fasted overnight; and the p.o. dose was 5 mg/kg and the administration volume was 10 mL/kg. 2.5 Sample collection: Blood collection: Before and after administration to rats, 0.2 mL of blood was collected from the jugular vein at 0.25, 0.5, 1, 2, 4, 6, 8 and 24 h, and placed in an EDTA-K2 anticoagulation tube, which was centrifuged at 6000 rpm at 4°C for 6 min to separate plasma which was stored at -80°C; and the animals were fed 4 h after administration. 2.6 Sample treatment: • 1) Acetonitrile (160 µL) was added to plasma sample (40 µL) for precipitation, and the mixture was centrifuged at 3500 × g for 5-20 min. • 2) The treated supernatant solution was taken and subjected to LC/MS/MS to analyse the concentrations of the test compound. LC/MS/MS analysis instrument: AB Sciex API 4000 Qtrap. 2.7 Liquid phase analysis: • Liquid phase conditions: Shimadzu LC-20AD pump • Chromatographic column: Agilent ZORBAX XDB-C18 (50 × 2.1 mm, 3.5 µm), mobile phase: solution A: 0.1% formic acid in water, solution B: acetonitrile • Flow rate: 0.4 mL/min • Elution time: 0-4.0 min, with eluents as follows:
3. Experimental results and analysis: The main pharmacokinetic parameters were calculated using WinNonlin 6.1.

[4] = Solubility experiments in different media, crystal forms of salts; format: physicochemical; design: thermodynamic solubility FaSSIF / thermodynamic solubility FaSSGF / thermodynamic solubility FeSSIF: unit not given here; details: about 2 mg suspended for 24 hours, 37°C, HPLC, external standard method
Source text: 4.1 Experimental objective: The solubility of the crystal form A of phosphate, crystal form A of hydrochloride, crystal form A of sulphate, crystal form A of citrate, crystal form A of oxalate, crystal form A of maleate and crystal form A of salicylate in media such as artificial simulated gastric fluid (FaSSGF), fasted-state artificial simulated intestinal fluid (FaSSIF), and fed-state artificial simulated intestinal fluid (FeSSIF) was compared to provide a basis for the evaluation of the potential of the crystal forms of salts being manufactured as a drug. […]

[5] = Solid stability experiment of crystal form A of phosphate (5, 10, 20 and 30 days); format: physicochemical; details: 60°C (GW, sealed), 50°C/75% RH (JS, unsealed), room temperature/92.5% RH (GS, unsealed)
Experimental: • 5.1 Experimental objective: To investigate and compare the stability of the crystal form A of phosphate under the three conditions of a high temperature of 60°C (GW, sealed), 50°C/75% RH (JS, unsealed), and room temperature/92.5% RH (GS, unsealed) and provide a basis for the screening of the crystal forms of salts and the storage of the salts of the compound. • 5.2 Experimental scheme: About 2 mg of crystal form A of phosphate was weighed into 2 mL dry and clean glass vials, respectively. The vials were respectively placed under the conditions of 60°C (GW, sealed), 50°C/75% RH (JS, unsealed), and room temperature/92.5% RH (GS, unsealed) for 5, 10, 20 and 30 days. […] Therefore, the crystal form can well meet the requirements of subsequent long-term storage and formulation processes.

[6] = Hygroscopicity experiment (crystal forms of salts and crystal form A of free base); format: physicochemical
Source text: • 2.1 Experimental objective: The hygroscopicity of different crystal forms of salts of the compound was investigated under various relative humidity conditions to provide a basis for screening and storage of the crystal forms of salts of the compound. • 2.2 Experimental scheme: The crystal forms of salts of the compound were placed in saturated water vapor at different relative humidities to reach a dynamic equilibrium between the compound and the water vapor.
3.1 Experimental objective: The hygroscopicity of crystal form A of free base of the compound was investigated under various relative humidity conditions to provide a basis for screening and storage of the crystal forms of the compound.
3.2 Experimental scheme: The crystal form A of free base of the compound was placed in saturated water vapor at different relative humidities to reach a dynamic equilibrium between the compound and the water vapor. The percentage weight gain of the compound due to moisture absorption was calculated after the equilibrium.

Row | Compound | IC50 [1] [nM] | IC50 [2] [nM] | IC50 (Ba/F3 EGFR Del19/C797S) [nM] | AUC(0-t) [3] [ng·h/mL] | Cmax [3] [ng/mL] | half-life [3] [h] | thermodynamic solubility FaSSGF ([4]; FaSSGF (artificial simulated gastric fluid)) | thermodynamic solubility FaSSIF ([4]; FaSSIF (fasted-state artificial simulated intestinal fluid)) | solubility thermodynamic at 24 h ([4]; thermodynamic from solid, FeSSIF (fed-state artificial simulated intestinal fluid)) [µg/mL] | stability (impurity increase) [5] | weight gain after moisture absorption ([6]; RH 80%) [%] | hygroscopicity ([6]; RH 80%, result in words) | crystal form transformation (XRPD pattern) ([6]; after 1 cycle of moisture absorption and desorption, 0-95% relative humidity)
1 | CC(C)c1c(F)cc(N2C[C@H](CS(C)(=O)=O)[C@H]2C)c2cnc(Nc3ccnc(-c4cn(C)nc4Cl)n3)cc12 [Example 1, N-(2-(3-chloro-1-methyl-1H-pyrazol-4-yl)pyrimidin-4-yl)-6-fluoro-5-isopropyl-8-((2R,3S)-2-methyl-3-((methanesulphonyl)methyl)azetidin-1-yl)isoquinolin-3-amine] | 7.1 | 14 | 11 | 2100 | 178 | 2.3 | – | – | – | – | – | – | –
2 | CC(C)c1c(F)cc(N2C[C@H](N(C)S(C)(=O)=O)[C@H]2C)c2cnc(Nc3ccnc(-c4cn(C)nc4Cl)n3)cc12 [Example 2, N-((2R,3S)-1-(3-((2-(3-chloro-1-methyl-1H-pyrazol-4-yl)pyrimidin-4-yl)amino)-6-fluoro-5-isopropylisoquinolin-8-yl)-2-methylazetidin-3-yl)-N-methylmethanesulphonamide] | 4.5 | 15 | 6.2 | 1770 | 142 | 3.9 | – | – | – | – | – | – | –
3 | Cc1nn(C)cc1-c1nccc(Nc2cc3c(C(C)C)c(F)cc(N4C[C@H](N(C)S(C)(=O)=O)[C@H]4C)c3cn2)n1 [Example 5, N-((2R,3S)-1-(3-((2-(1,3-dimethyl-1H-pyrazol-4-yl)pyrimidin-4-yl)amino)-6-fluoro-5-isopropylisoquinolin-8-yl)-2-methylazetidin-3-yl)-N-methylmethanesulphonamide] | 4.5 | – | 7.8 | 2000 | 157 | 3.9 | – | – | – | – | – | – | –
4 | CC(C)c1c(F)cc(N2C[C@H](NS(C)(=O)=O)[C@H]2C)c2cnc(Nc3ccnc(-c4cn(C)nc4Cl)n3)cc12 [Example 14, N-((2R,3S)-1-(3-((2-(3-chloro-1-methyl-1H-pyrazol-4-yl)pyrimidin-4-yl)amino)-6-fluoro-5-isopropylisoquinolin-8-yl)-2-methylazetidin-3-yl)methanesulphonamide] | – | 8.8 | 2.6 | – | – | – | – | – | – | – | – | – | –
5 | CC(C)c1c(F)cc(N2C[C@H](N(C)S(C)(=O)=O)[C@H]2C)c2cnc(Nc3ccnc(-c4cn(C)nc4Cl)n3)cc12 [crystal form A of phosphate, N-((2R,3S)-1-(3-((2-(3-chloro-1-methyl-1H-pyrazol-4-yl)pyrimidin-4-yl)amino)-6-fluoro-5-isopropylisoquinolin-8-yl)-2-methylazetidin-3-yl)-N-methylmethanesulphonamide] | – | – | – | – | – | – | 0.010 | 0.203 | 1200 | relatively stable | 0.533 | weak hygroscopicity | no crystal form transformation occurred

— patent EP4778921A1, “SALT FORM AND CRYSTAL FORM OF NITROGEN-CONTAINING HETEROCYCLIC DERIVATIVE INHIBITOR, AND PREPARATION METHOD THEREFOR AND USE THEREOF” (Shanghai Hansoh Biomedical Co., Ltd., priority 2023, dated 2025)
